# According to the supplement of paper PMC10307832:
# Compound: Cc1nc(NC(=O)N2CCC[C@H]2C(N)=O)sc1-c1ccnc(C(C)(C)C(F)(F)F)c1 [Alpelisib] + CS(=O)(=O)N1CCN(Cc2cc3nc(-c4cccc5[nH]ncc45)nc(N4CCOCC4)c3s2)CC1 [Pictilisib] (partner 1 µM)
# Assay: relative viability (nuclei count vs DMSO), 5 days (fraction); higher = more cells survive
# Settings: first compound 0.04 µM
# Procedure, shortened: (§1)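 Nuclei were stained with Hoechst during a one-step fixation (final 0.05% Triton X-100, 1% formaldehyde, 1 ug/ml Hoechst) carried out 5 days after dosing, then counted on 4× images. The cells, lung cancer lines in 1536-well plates, had been dosed by pin tool the day after seeding with one drug alone or a fixed anchor-drug dose plus five library-drug doses (not always all listed) in √10 steps. Relative viability is the nuclei count in treated wells divided by that in vehicle wells, and each value is the median of duplicate plates.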
row,Cell Line,relative viability
1,NCI-H1666,0.508
2,RERF-LC-KJ,0.557
3,NCI-H650,0.756
4,NCI-H322M,0.491
5,NCI-H596,0.404
6,201T,0.655
7,SK-MES-1,0.361
8,NCI-H441,0.438
9,HCC-78,0.21

# Same assay, conditions: first compound 0.1265 µM
row,Cell Line,relative viability
1,NCI-H1666,0.459
2,RERF-LC-KJ,0.583
3,NCI-H650,0.804
4,NCI-H322M,0.553
5,NCI-H596,0.413
6,201T,0.725
7,SK-MES-1,0.39
8,NCI-H441,0.448
9,HCC-78,0.187

# Same assay, conditions: first compound 0.4 µM
row,Cell Line,relative viability
1,NCI-H1666,0.536
2,RERF-LC-KJ,0.559
3,NCI-H650,1.09
4,NCI-H322M,0.544
5,NCI-H596,0.362
6,201T,0.637
7,SK-MES-1,0.467
8,NCI-H441,0.547
9,HCC-78,0.218

# Same assay, conditions: first compound 1.265 µM
row,Cell Line,relative viability
1,NCI-H1666,0.479
2,RERF-LC-KJ,0.268
3,NCI-H650,0.746
4,NCI-H322M,0.473
5,NCI-H596,0.399
6,201T,0.642
7,SK-MES-1,0.333
8,NCI-H441,0.382
9,HCC-78,0.222

# Same assay, conditions: first compound 4 µM
row,Cell Line,relative viability
1,NCI-H1666,0.344
2,RERF-LC-KJ,0.46
3,NCI-H650,0.808
4,NCI-H322M,0.478
5,NCI-H596,0.358
6,201T,0.62
7,SK-MES-1,0.316
8,NCI-H441,0.41
9,HCC-78,0.228

# Compound: Cc1nc(NC(=O)N2CCC[C@H]2C(N)=O)sc1-c1ccnc(C(C)(C)C(F)(F)F)c1 [Alpelisib] + Nc1nc2[nH]cc(CCc3ccc(C(=O)N[C@@H](CCC(=O)O)C(=O)O)cc3)c2c(=O)[nH]1 [Pemetrexed] (partner 0.2 µM)
# Assay: as above
# Settings: first compound 0.04 µM
# Procedure, shortened: as §1
row,Cell Line,relative viability
1,NCI-H1666,0.882
2,RERF-LC-KJ,0.504
3,NCI-H650,0.909
4,NCI-H322M,0.561
5,NCI-H596,0.44
6,201T,0.328
7,SK-MES-1,0.954
8,NCI-H441,0.273
9,HCC-78,0.854

# Same assay, conditions: first compound 0.1265 µM
row,Cell Line,relative viability
1,NCI-H1666,0.893
2,RERF-LC-KJ,0.477
3,NCI-H650,0.923
4,NCI-H322M,0.61
5,NCI-H596,0.446
6,201T,0.325
7,SK-MES-1,0.955
8,NCI-H441,0.269
9,HCC-78,0.941

# Same assay, conditions: first compound 0.4 µM
row,Cell Line,relative viability
1,NCI-H1666,0.979
2,RERF-LC-KJ,0.456
3,NCI-H650,0.879
4,NCI-H322M,0.588
5,NCI-H596,0.503
6,201T,0.361
7,SK-MES-1,1.07
8,NCI-H441,0.28
9,HCC-78,0.951

# Same assay, conditions: first compound 1.265 µM
row,Cell Line,relative viability
1,NCI-H1666,0.833
2,RERF-LC-KJ,0.406
3,NCI-H650,0.794
4,NCI-H322M,0.489
5,NCI-H596,0.41
6,201T,0.305
7,SK-MES-1,0.868
8,NCI-H441,0.264
9,HCC-78,0.854

# Same assay, conditions: first compound 4 µM
row,Cell Line,relative viability
1,NCI-H1666,0.514
2,RERF-LC-KJ,0.464
3,NCI-H650,0.757
4,NCI-H322M,0.578
5,NCI-H596,0.42
6,201T,0.269
7,SK-MES-1,0.689
8,NCI-H441,0.272
9,HCC-78,0.887
